Test results as given in patent publication US20190314285A1, “DOSAGE FORMS COMPRISING ABIRATERONE ACETATE” (Janssen Pharmaceutica NV, priority 2018, published 2019).

How the values were obtained:
[1] = test system: circulating androgens (testosterone, DHT, DHEA, androstenedione); conditions: added to castration, relative to castration alone; cited from earlier work
[2] = Plasma concentrations of abiraterone acetate in previous studies; assay type: in vivo
[3] = target: T1, 17,20-lyase (CYP17A1) (Homo sapiens, UniProt P05093); conditions: cited from earlier work
T1 sequence (P05093 1-508): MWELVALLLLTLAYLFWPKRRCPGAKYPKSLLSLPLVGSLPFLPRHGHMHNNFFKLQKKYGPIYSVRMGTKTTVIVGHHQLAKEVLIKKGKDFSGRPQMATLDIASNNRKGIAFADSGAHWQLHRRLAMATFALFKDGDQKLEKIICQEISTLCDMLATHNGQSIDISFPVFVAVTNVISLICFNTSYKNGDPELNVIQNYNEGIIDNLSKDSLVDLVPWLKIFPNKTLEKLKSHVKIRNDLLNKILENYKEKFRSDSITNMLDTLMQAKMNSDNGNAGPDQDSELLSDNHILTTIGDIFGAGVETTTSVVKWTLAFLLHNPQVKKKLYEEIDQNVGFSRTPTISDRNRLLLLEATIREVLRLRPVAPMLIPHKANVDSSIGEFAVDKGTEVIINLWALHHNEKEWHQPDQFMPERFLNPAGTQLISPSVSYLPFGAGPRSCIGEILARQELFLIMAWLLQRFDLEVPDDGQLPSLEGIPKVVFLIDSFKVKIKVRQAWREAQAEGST

[4] = test system: mCRPC; conditions: cited from earlier work

With `CC(=O)O[C@H]1CC[C@@]2(C)C(=CC[C@@H]3[C@@H]2CC[C@]2(C)C(c4cccnc4)=CC[C@@H]32)C1` [abiraterone acetate, Abiraterone acetate] as the molecule, how does the “reduction of DHEA levels” value [1] read?
The value was 97-98%.

What about the “reduction of DHT levels” value [1] of the same molecule?
Its value is 85%.

And the “reduction of androstenedione levels” value [1]?
Its value is 77-78%.

What about the “plasma concentrations of abiraterone acetate” value [2] of the same molecule?
Its value is “below the lower limit of quantitation”.

With `C[C@]12CC[C@H](O)CC1=CC[C@@H]1[C@@H]2CC[C@]2(C)C(c3cccnc3)=CC[C@@H]12` [Abiraterone] as the molecule, how does the IC50 [3] read?
Its IC50 is 15 nM.

Which results are given for `O=C(c1cc(Cc2n[nH]c(=O)c3ccccc23)ccc1F)N1CCN(C(=O)C2CC2)CC1` [olaparib]?
biomarker-negative patient tumors with a response ([4]; 2 of 33): 6%; responders who were biomarker-positive for anomalies in DNA-repair genes ([4]; 14 of the 16 patients with a response): 88%; patients with ATM aberrations who had a response ([4]; human, in vivo): 4 of 5; patients with BRCA-2 loss who had a response ([4]; human, in vivo): all 7 patients
